Laboratory results: paper PMC8778818, “Synthesis, Structural Characterization and Anticancer Activity of New 5-Trifluoromethyl-2-thioxo-thiazolo[4,5-d]pyrimidine Derivatives” (Pharmaceuticals, 2022)

Legend:
[1] = tested on: UACC-257; test: NCI-60 screen, Melanoma UACC-257; format: cell-based; details: UACC-257, 10^−5 M one dose
[2] = tested on: MALME-3M; test: NCI-60 screen, Melanoma MALME-3M; format: cell-based, human; details: 10^−5 M one dose
[3] = tested on: SK-MEL-2; test: NCI-60 screen, Melanoma SK-MEL-2; format: cell-based, human; details: SK-MEL-2, 10^−5 M one dose
[4] = tested on: HCT-15; test: NCI-60 screen, Colon Cancer HCT-15; format: cell-based; details: HCT-15, 10^−5 M one dose
[5] = tested on: U251; test: NCI-60 screen, CNS Cancer U251; format: cell-based, human; details: U251, 10^−5 M one dose
[6] = tested on: COLO-205; test: NCI-60 screen, Colon Cancer COLO-205; format: cell-based, human; details: COLO-205, 10^−5 M one dose
[7] = tested on: MDA-MB-231/ATCC; test: NCI-60 screen, Breast Cancer MDA-MB-231/ATCC; format: cell-based; details: MDA-MB-231/ATCC, 10^−5 M one dose
[8] = tested on: HCC-2998; test: NCI-60 screen, Colon Cancer HCC-2998; format: cell-based, human; details: HCC-2998, 10^−5 M one dose
[9] = tested on: SK-MEL-28; test: NCI-60 screen, Melanoma SK-MEL-28; format: cell-based; details: SK-MEL-28, 10^−5 M one dose
[10] = tested on: MOLT-4; test: NCI-60 screen, Leukemia MOLT-4; format: cell-based, human; details: MOLT-4, 10^−5 M one dose
[11] = tested on: OVCAR-4; test: NCI-60 screen, Ovarian Cancer OVCAR-4; format: cell-based, human; details: OVCAR-4, 10^−5 M one dose
[12] = tested on: SN12C; test: NCI-60 screen, Renal Cancer SN12C; format: cell-based; details: 10^−5 M one dose
[13] = tested on: CCRF-CEM; test: NCI-60 screen, Leukemia CCRF-CEM; format: cell-based, human; details: 10^−5 M one dose
[14] = tested on: HS 578T; test: NCI-60 screen, Breast Cancer HS 578T; format: cell-based, human; details: 10^−5 M one dose
[15] = tested on: M14; details: M14, 10^−5 M one dose
[16] = tested on: UO-31; test: NCI-60 screen, Renal Cancer UO-31; format: cell-based; details: UO-31, 10^−5 M one dose
[17] = tested on: RPMI-8226; test: NCI-60 screen, Leukemia RPMI-8226; format: cell-based, human; details: RPMI-8226, 10^−5 M one dose
[18] = tested on: DU145; test: MTT cell viability assay, DU145; format: cell-based, human; details: Homo sapiens, DU-145; DU145, MTT, 72 h, mean ± SD
Procedure: Twelve compounds (2a-e, 3a-d and 4a-c) at a concentration range of 50–5000 μM were tested for their antiproliferative potential against four human cancer cell lines (A375—melanotic melanoma, C32—amelanotic melanoma, DU145—prostate cancer androgen-independent, MCF-7/WT—breast adenocarcinoma) and two normal cell lines: Chinese Hamster Ovary (CHO-K1) and immortalized human keratinocytes from histologically normal skin (HaCaT).
To determine the antiproliferative activity of newly synthesized compounds, the following cell lines were used: human melanotic melanoma cell line (A375), human amelanotic melanoma cell line (C32), human breast adenocarcinoma cell line (MCF-7/WT), human prostate cancer androgen-independent (DU145) and two normal cell lines: hamster ovarian (CHO-K1) and immortalized human keratinocytes from histologically normal skin (HaCaT). The cells were obtained from the cell line bank of the Department of Molecular and Cellular Biology, Wroclaw Medical University. A375, C32, MCF-7/WT, DU145 and HaCaT cells were grown in a monolayer cultured in Dulbecco’s Modified Eagle’s Medium (DMEM, Sigma-Aldrich, Poznań, Poland), supplemented with 10% of fetal bovine serum (FBS, Gibco, Paisley, UK) and 1% of antibiotics (penicillin/streptomycin, Sigma-Aldrich) and CHO-K1 were grown in HAM’s F-12 medium (Sigma-Aldrich), supplemented with 10% fetal bovine serum (FBS, Gibco) and 1% of antibiotics (penicillin/streptomycin, Sigma-Aldrich). Cell lines were cultured in the polystyrene flasks 25 or 75 cm^2 (Thermo Fisher Scientific, Waltham, MA, USA), which were stored in 37 °C and 5% CO2 in a humidified 95% atmosphere (SteriCult, Thermo Scientific, Alab). The cell medium was exchanged twice a week. The exponentially growing cells were used throughout the experiments. The cells were rinsed with phosphate-buffered saline (PBS, Sigma-Aldrich) and trypsinized by Trypsin-EDTA 0.25% solution (Sigma-Aldrich).
The influence of the compounds was performed in a monolayer culture on cancer and normal cells. Compounds were initially dissolved in DMSO; further dilutions of the compound were performed in Dulbecco’s Modified Eagle’s Medium supplemented with 10% FBS. Compounds were tested in a 50–5000 µM concentration range. In the in vitro experiments, the concentrations of DMSO in the final solution of the compounds were used 0.05%; 0.1%; 0.5%; 1%, respectively.
Cell viability was determined using the MTT colorimetric assay. All cell lines were seeded into 96-well plates to a density of 3 × 10^4 cells/well. After 24 h, the culture supernatants were removed and appropriate dilutions of compounds in the culture medium (200 µL/well) were added to the cells’ monolayer cultures and incubated for an additional 72 h. After 72 h of exposition to the compounds and the removal of the culture medium, cell viability was determined by reducing the yellow dye 3-(4,5-dimethyl-2-thiazol)-2,5-diphenyl-2H-tetrazolium bromide (MTT assay, Sigma Saint Louis, MO, USA; In Vitro Toxicology Assay) to a blue formazan product. The absorbance of the resulting solutions in three duplicate experiments was measured at the wavelength of 560 nm in a microplate reader (EnSpire, Perkin Elmer, Kraków, Poland). MTT assay is a colorimetric method that estimates the rate of metabolism in viable cells. Absorbance is directly proportional to the number of viable cells. All the experiments were performed three times and the mean absorbance values were calculated. The methodology for the evaluation of the growth of human cancer and normal cells was described previously. The cell viability in each group was expressed as a percentage of control (untreated) cells.

[19] = tested on: OVCAR-8; test: NCI-60 screen, Ovarian Cancer OVCAR-8; format: cell-based, human; details: OVCAR-8, 10^−5 M one dose
[20] = tested on: RXF 393; test: NCI-60 screen, Renal Cancer RXF 393; format: cell-based, human; details: RXF 393, 10^−5 M one dose
[21] = tested on: PC-3; test: NCI-60 screen, Prostate C. PC-3; format: cell-based; details: PC-3, 10^−5 M one dose

Compound	Growth of Cells (%) [1]	Growth of Cells (%) [2]	Growth of Cells (%) [3]	Growth of Cells (%) [4]	Growth of Cells (%) [5]	Growth of Cells (%) [6]	Growth of Cells (%) [7]	Growth of Cells (%) [8]	Growth of Cells (%) [9]	Growth of Cells (%) [10]	Growth of Cells (%) [11]	Growth of Cells (%) [12]	Growth of Cells (%) [13]	Growth of Cells (%) [14]	Growth of Cells (%) [15]	Growth of Cells (%) [16]	Growth of Cells (%) [17]	IC50 [18]	Growth of Cells (%) [19]	Growth of Cells (%) [20]	other results
O=c1[nH]c(C(F)(F)F)nc2c1sc(=S)n2-c1ccccc1 [Compound 2b, 3-phenyl-2-thioxo-5-(trifluoromethyl)-2,3-dihydro[1, 3]thiazolo[4,5-d]pyrimidin-7(6H)-one]	107.08%	121.70%	97.36%	106.95%	101.63%	114.26%	107.13%	116.48%	102.86%	117.56%	117.19%	106.95%	96.48%	65.01%	112.91%	91.22%	108.14%	356 ± 14.7 µM	103.45%	95.34%	Growth of Cells (%) [21]: 100.88%
CCNc1nc(C(F)(F)F)nc2c1sc(=S)n2-c1ccccc1 [Compound 4b, 7-(ethylamino)-3-phenyl-5-(trifluoromethyl)[1, 3]thiazolo[4,5-d]pyrimidine-2(3H)-thione]	98.66%	144.23%	88.08%	94.67%	93.27%	105.73%	85.06%	115.06%	112.46%	81.83%	98.24%	100.30%	–	106.83%	107.61%	103.75%	–	323 ± 13.8 µM	96.11%	100.09%	–
Fc1ccc(CNc2nc(C(F)(F)F)nc3c2sc(=S)n3-c2ccccc2)cc1 [Compound 4c]	96.72%	106.31%	95.77%	103.39%	–	112.07%	119.48%	118.24%	110.02%	96.58%	125.04%	101.41%	102.97%	125.43%	112.06%	82.87%	104.96%	237 ± 10.3 µM	98.68%	104.44%	Growth of Cells (%) [21]: 100.51%
